BindingDB's records for PubMed 35315650 (Korea Research Institute of Chemical Technology, 2022)
pEC50: −log10 of the molar value.

Test: Agonist activity at STING in human wild-type THP1-Dual cells co-expressing ISRE reporter assessed as IRF-mediated immune response incubated for 24 hrs by QUANTI Luc based microplate reader method

SMILES | pEC50
CCn1nc(C)cc1C(=O)/N=c1\[nH]c2cc(C(N)=O)ccc2n1CCCCn1/c(=N/C(=O)c2cc(C)nn2CC)[nH]c2cc(C(N)=O)ccc21 | 5.91
CCn1nc(C)cc1C(=O)Nc1nc2cc(C(N)=O)cc(OC)c2n1CCCCNC(=O)OC(C)(C)C | 6.09
CCn1nc(C)cc1C(=O)Nc1nc2cc(C(N)=O)cc(OC)c2n1C/C=C/Cn1c(NC(=O)c2cc(C)nn2CC)nc2cc(C(N)=O)cc(OCCCNC(=O)OC(C)(C)C)c21 | 9.45
CCn1nc(C)cc1C(=O)Nc1nc2cc(C(N)=O)ccc2n1CCCCCNC(=O)OC(C)(C)C | 5.77
CCn1nc(C)cc1C(=O)NCCCOc1cc(C(N)=O)cc2nc(NC(=O)c3cc(C)nn3CC)n(C/C=C/Cn3c(NC(=O)c4cc(C)nn4CC)nc4cc(C(N)=O)cc(OC)c43)c12 | 11.40
CCn1nc(C)cc1C(=O)Nc1nc2cc(C(N)=O)cc(OC)c2n1C/C=C/CNC(=O)OC(C)(C)C | 5.34
CCn1nc(C)cc1C(=O)Nc1nc2cc(C(N)=O)ccc2n1CCCCNC(=O)OC(C)(C)C | 5.18
Cn1cc(C(=O)Nc2nc3cc(C(N)=O)ccc3n2CCCCn2c(NC(=O)c3cn(C)nc3C(F)(F)F)nc3cc(C(N)=O)ccc32)c(C(F)(F)F)n1 | 4.75
CCn1nc(C)cc1C(=O)Nc1nc2cc(C(N)=O)ccc2n1CCCCNC(=O)c1ccccc1 | 4.54
CCn1nc(C)cc1C(=O)Nc1nc2cc(C(N)=O)ccc2n1CCCNC(=O)OC(C)(C)C | 4.31
CCn1nc(C)cc1C(=O)Nc1nc2cc(C(N)=O)ccc2n1CCCCNC(=O)C(C)(C)C | 4.29
CCn1nc(C)cc1C(=O)Nc1nc2cc(C(N)=O)cc(OC)c2n1C/C=C/Cn1c(NC(=O)c2cc(C)nn2CC)nc2cc(C(N)=O)cc(OCCCN)c21 | 8.79

Results, then the compound that gave them:

pEC50 | SMILES
5.78 | CCn1nc(C)cc1C(=O)Nc1nc2cc(C(N)=O)cc(OCCCNC(=O)OC(C)(C)C)c2n1C
5.21 | CCn1nc(C)cc1C(=O)NCCCOc1cc(C(N)=O)cc2nc(NC(=O)c3cc(C)nn3CC)n(C)c12
5.04 | CCn1nc(C)cc1C(=O)NCCCCn1c(NC(=O)c2cc(C)nn2CC)nc2cc(C(N)=O)ccc21
4.53 | CCn1nc(C)cc1C(=O)Nc1nc2cc(C(N)=O)cc(OCCCN)c2n1C
4.52 | CCn1nc(C)cc1C(=O)Nc1nc2cc(C(N)=O)ccc2n1CCCCNC(=O)c1cc(C)nn1C
4.41 | CCn1nc(C)cc1C(=O)NCCCn1c(NC(=O)c2cc(C)nn2CC)nc2cc(C(N)=O)ccc21
